This note sets out measurements from ChEMBL document CHEMBL4321782, “Gasdermin D (GSDMD) as a new target for the treatment of infection” (Medchemcomm, 2019).

Experiment [1] deals with T1, Gasdermin-D (Mus musculus) (UniProt Q9D8T2).
T1 sequence (whole entry): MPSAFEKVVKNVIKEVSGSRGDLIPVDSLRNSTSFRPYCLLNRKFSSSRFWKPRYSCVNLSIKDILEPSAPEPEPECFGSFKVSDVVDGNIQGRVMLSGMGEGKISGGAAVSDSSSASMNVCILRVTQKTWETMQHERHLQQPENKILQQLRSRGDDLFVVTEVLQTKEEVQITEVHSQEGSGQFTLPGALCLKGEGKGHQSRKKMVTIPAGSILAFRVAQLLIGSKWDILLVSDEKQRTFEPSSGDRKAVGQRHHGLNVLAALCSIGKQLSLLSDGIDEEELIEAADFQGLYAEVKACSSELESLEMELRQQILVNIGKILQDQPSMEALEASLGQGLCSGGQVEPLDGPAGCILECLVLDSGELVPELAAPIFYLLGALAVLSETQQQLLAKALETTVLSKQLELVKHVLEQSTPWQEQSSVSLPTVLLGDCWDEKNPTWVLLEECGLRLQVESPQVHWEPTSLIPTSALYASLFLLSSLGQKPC
Nature of the experiment: Inhibition of mouse GSDMD expressed in HEK293 cells assessed as inhibition of GSDMD -induced lethality. It is filed as cell-based.

Experiment [2] has as its target T2, Gasdermin-D (Homo sapiens) (UniProt P57764).
T2 sequence (whole entry): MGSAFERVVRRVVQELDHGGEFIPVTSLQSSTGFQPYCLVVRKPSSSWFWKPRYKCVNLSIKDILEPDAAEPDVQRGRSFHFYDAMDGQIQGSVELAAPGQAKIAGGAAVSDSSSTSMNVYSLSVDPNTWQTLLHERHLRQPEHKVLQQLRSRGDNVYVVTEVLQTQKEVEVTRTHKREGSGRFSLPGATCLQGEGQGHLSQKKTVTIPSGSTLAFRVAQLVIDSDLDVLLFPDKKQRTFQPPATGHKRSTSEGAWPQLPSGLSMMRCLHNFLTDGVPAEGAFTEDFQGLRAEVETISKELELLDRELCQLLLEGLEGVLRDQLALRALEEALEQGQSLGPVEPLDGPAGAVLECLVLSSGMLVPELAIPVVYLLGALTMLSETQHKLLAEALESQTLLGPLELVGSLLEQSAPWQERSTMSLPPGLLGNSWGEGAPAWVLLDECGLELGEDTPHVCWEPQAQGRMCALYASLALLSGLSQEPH
Nature of the experiment: Inhibition of human GSDMD expressed in HEK293 cells assessed as inhibition of GSDMD -induced lethality. It is filed as cell-based.

For experiment [3], the target named is T2, Gasdermin-D (Homo sapiens). Nature of the experiment: Inhibition of GSDMD in LPS-induced human monocyte/macrophages assessed as inhibition of pyroptosis by fluorogenic liposome leakage assay. The conditions noted are these: concentration not given here.
For experiment [4], the target named is T1, Gasdermin-D (Mus musculus). Nature of the experiment: Inhibition of GSDMD in LPS-induced mouse monocyte/macrophages assessed as inhibition of pyroptosis by fluorogenic liposome leakage assay. The conditions noted are these: concentration not given here.

Residues, ends and D or L forms follow the SMILES beside them. *: point of attachment. Cbz = O=C(OCc1ccccc1)*; CH2F = FC*

Turning to `COc1ccccc1-c1cc2n(n1)Cc1ccc(NC(C)=O)cc1OC2`, the INH in experiment [1] worked out at 5 µM; in experiment [2], 1 µM.
For `Cc1ccc(S(=O)(=O)/C=C/C#N)cc1`, the inhibition in experiment [3] and in experiment [4] was > 50% throughout.
On to `CC(C)[C@H](NC(=O)OCc1ccccc1)C(=O)N[C@@H](C)C(=O)N[C@@H](CC(=O)O)C(=O)CF` (Cbz-Val-Ala-Asp-CH2F), for which the inhibition in experiment [3] and in experiment [4] was > 50% each time.

The term inhibition denotes the relative decrease from the control value, in per cent.
